Experimental data taken from patent US4748161A, “Triterpenyl esters of organic acids and hypolipidemic agents composed of them” (Amano Pharmaceutical Co., Ltd., priority 1984, dated 1988).
Where two headings read alike, the source gives them in different places.

How the values were obtained:
[1] = Body weight of rats in method B; parameters: species or system male Wistar strain rats; conditions: rat, in vivo
Description: (§1) Male Wistar strain rats (100±1 g, each 8 rats were formed into a group except that the control group fed with a hyperlipidemic diet was formed of 16 rats) were used as test animals. A powdery diet (CE-2, supplied by Clea Japan, Inc.) was used as ordinary diet. The hyperlipidemic diet was prepared by fortifying the ordinary diet with cholesterol (1%) and cholic acid (0.5%). Each test compound (1%) for administration was admixed with the hyperlipidemic diet. Each two rats were kept in a cage and given the prescribed diet and water ad libitum. Thus the rats were fed for 4 weeks at a constant temperature of 23±1° C. and a constant R.H. of 55±5%. Finally, the rats were fasted from food except water for 16 hours (from 4 p.m. of the 28th test day to 8 a.m. of the 29th test day), and under anesthesia with pentbarbital sodium (tradename: Nembutal), blood was taken from each rat through the descending abdominal arota. Then, TC, HDL-C, TG, PL, and LPO in the serum were measured in the following manner.

[2] = tested on: serum lipids and serum lipid hydroperoxide; experiment: Pharmacological test method B for anti-hyperlipidemic activity (serum lipids, 4 weeks feeding); assay type: in vivo, male Wistar strain rats; parameters: AI Diff.: unit not given here; conditions: for AI [(TC - HDL-C)/(HDL-C)] / HDL-C in serum / LPO in serum / PL in serum / TC in serum / TG in serum: 1% in hyperlipidemic diet, 4 weeks; for change in vivo at 1 % in diet: Rattus norvegicus, po, 672 h; for change in vivo at 1 % in diet / AI Diff. / HDL-C Diff. / LPO Diff. / PL Diff. / TC % of diff. / TC Diff. / TG Diff.: versus control group; for HDL-C rise compared with normal diet group: versus normal diet group
Description: Pharmacological test method B for anti-hyperlipidemic acitivity (the term "method B" was used in the present specification)
as §1
A TC kit-K (supplied by Nippon Shoji Kaisha, Ltd.) was used. The principle of this determination is as follows: The ester of cholesterol in the serum is hydrolyzed with cholesterol-ester hydrolase into free cholesterol and fatty acids. All the free cholesterol is oxidized with cholesterol oxydase to form Δ^4 -cholestenone and hydrogen peroxide. Phenol and 4-aminoantipyrin are oxidatively condensed together by the formed hydrogen peroxide and peroxydase. The produced red quinone coloring matter is measured by colorimetry for absorbance at 500 nm using a spectrophotometer, thereby determining the TC:
The color-developing liquid (3.0 ml) is well mixed with the sample serum (0.02 ml). The mixture once heated at 37° C. for 15 minutes, is measured for absorbance at 500 nm with a spectrophotometer. The found absorbance is denoted by EA. On the other hand, the color-developing liquid (3.0 ml) is well mixed with the standard solution. The mixture is treated and measured for absorbance at 500 nm in the same manner as the above. This found absorbance is denoted by ES. Both EA and ES are determined with reference to the value of the blank test conducted using the color-developing liquid (3.0 ml) alone. [formula]
An HDL-C kit-N (supplied by Nippon Shoji Kaisha, Ltd.) was used. […] (VLDL) and lo density lipoprotein (LDL) in the serum is precipitated by the action of heparin. The precipitate is separated by centrifugation. High density lipoprotein (HDL) is dissolved in the separated supernatant. Esters of cholesterol in this fraction is hydrolyzed with cholesterol-ester hydrolase into free cholesterol and fatty acids. All the free cholesterol is oxidized with cholesterol oxydase to form Δ^4 -cholestenone and hydrogen peroxide. Phenol and 4-aminoantipyrine are oxidatively condensed together by the formed hydrogen peroxide and peroxydase. The produced red quinone coloring matter is measured by colorimetry for absorbance at 500 nm using a spectrophotometer, thereby determining the HDL-C.
A PL kit-K (supplied by Nippon Shoji Kaisha, Ltd.) was used for the determination. Lecithin, sphingomyelin, and lysolecithin are decomposed by phospholipase D into choline and phosphatidic acid, N-acylsphingosyl phosphate, or lysophosphatidic acid, respectively. The resulting choline is quantitatively decomposed by choline oxydase into hydrogen peroxide and betaine. With this hydrogen peroxide, and aid of peroxydase, phenol and 4-aminoantipyrin are condensed into red quinone pigment, then the absorbance at 500 nm of which is measured with a spectrophotometer, thereby determining the PL. […]

SMILES	Body weight during feed period, 1st day [1]	Body weight during feed period, 8th day [1]	Body weight during feed period, 15th day [1]	Body weight during feed period, 22nd day [1]	Body weight during feed period, 28th day [1]	Body weight just before blood sampling, 29th day [1]	AI [(TC - HDL-C)/(HDL-C)] [2]	HDL-C in serum [2]	LPO in serum [2]	PL in serum [2]	TC in serum [2]	TG in serum [2]	change in vivo at 1 % in diet ([2]; read-out: AI % of diff.)	change in vivo at 1 % in diet ([2]; read-out: HDL-C % of diff.)	change in vivo at 1 % in diet ([2]; read-out: LPO % of diff.)	change in vivo at 1 % in diet ([2]; read-out: PL % of diff.)	change in vivo at 1 % in diet ([2]; read-out: TG % of diff.)	AI Diff. [2]	HDL-C Diff. [2]	LPO Diff. [2]	also measured
CCC(=Cc1ccc(O)cc1)C(=O)OC1CCC23CC24CCC2(C)C(C(C)CCC=C(C)C)CCC2(C)C4CCC3C1(C)C (stereo not drawn) [Example 130, cycloartenyl ester of 4-hydroxy-α-ethylcinnamic acid]	105 ± 3.3 g	144 ± 9.3 g	194 ± 18.1 g	245 ± 15.7 g	271 ± 18.0 g	258 ± 20.2 g	8.586	21.0 mg/dL	2.07 nmol/mL	107.2 mg/dL	201.3 mg/dL	53.4 mg/dL	-60.5%	55.6%	-26.6%	-23.5%	-5.5%	-13.17	+7.5 mg/dl	-0.75 nmol/mL	PL Diff. [2]: -32.9 mg/dL; TC % of diff. [2]: -34.5%; TC Diff. [2]: -106.0 mg/dL; TG Diff. [2]: -3.1 mg/dL
COc1cc(C=C(C)C(=O)OC2CCC34CC35CCC3(C)C(C(C)CCC(C)=C(C)C)CCC3(C)C5CCC4C2(C)C)ccc1O (stereo not drawn) [Example 116, cyclobranyl ester of 4-hydroxy-3-methoxy-α-methylcinnamic acid]	106 ± 5.9 g	146 ± 10.0 g	193 ± 17.5 g	244 ± 15.8 g	273 ± 20.4 g	260 ± 19.0 g	1.282	61.4 mg/dL	2.11 nmol/mL	97.4 mg/dL	140.1 mg/dL	54.0 mg/dL	-94.1%	355%	-25.2%	-30.5%	-10.8%	-20.48	+47.9 mg/dl	-0.71 nmol/mL	PL Diff. [2]: -42.7 mg/dL; TC % of diff. [2]: -54.4%; TC Diff. [2]: -167.2 mg/dL; TG Diff. [2]: -6.1 mg/dL; HDL-C rise compared with normal diet group [2]: remarkable rises
COc1cc(C(=O)OC2CCC34CC35CCC3(C)C(C(C)CCC=C(C)C)CCC3(C)C5CCC4C2(C)C)ccc1N (centres unmarked) [Example 167, cycloartenyl ester of 4-amino-3-methoxy benzoic acid]	105 ± 3.4 g	143 ± 10.4 g	191 ± 18.4 g	241 ± 21.7 g	272 ± 20.8 g	259 ± 20.6 g	2.405	79.6 mg/dL	2.28 nmol/mL	126.4 mg/dL	271.0 mg/dL	67.1 mg/dL									HDL-C rise compared with normal diet group [2]: remarkable rises
